# What was measured:
# HT1080 cells [1] = experiment: BrdU incorporation (DNA synthesis) in quiescent HT1080 cells; format: cell-based, human; settings: 18 h, R1881 and DHT 10 nM, EGF 100 ng/ml
# Experimental: Human fibrosarcoma HT1080 cells were used. In A, quiescent cells on coverslips were left un-stimulated or stimulated for 18 h with the indicated compounds. […] After in vivo pulse with BrdU (100 μM; Sigma), BrdU incorporation was analyzed by IF and expressed as % of total nuclei. Several independent experiments were performed in duplicate and the results were derived from at least 400 scored cells for each coverslip. Mean and SEM are shown. n represents the number of experiments. […] In B, xenografts were established in nude male mice as described in Methods. On alternate days, animals were intra-peritoneally injected with vehicle alone (vehicle), or the pure androgen antagonist Casodex (Cx: 0.1 μg/mice; 4µg/Kg body weight), or DHT (DHT: 0,1 μg/mice; 3 μg/Kg body weight) alone. Volumes of HT1080 cell xenografts were measured at the indicated times in two dimensions by a caliper and expressed as tumor mass (mm^3). Mean and SEM are shown. n represents the number of experiments.
# Quiescent HT1080 cells were used. […] Casodex (at 10 μM) was used for comparison with the S1 peptide. Upper section in A, Western blot of HT1080 cell lysates with anti-EGFR antibody. […] In B, lysates were immune-precipitated with the anti-Src MAb and Src activity in immune complexes was assayed using acidified enolase, as a substrate. In C, cells on coverslips were left untreated or treated for 18 h with the indicated compounds. After in vivo pulse with BrdU (100 μM), BrdU incorporation was analyzed by IF and expressed as % of total nuclei. Several independent experiments were performed in duplicate and the results were obtained from at least 500 scored cells for each coverslip. Mean and SEM are shown. n represents the number of experiments.
# HT1080 cells [2] = experiment: Trans-well migration/invasiveness of HT1080 cells; format: cell-based, human; settings: HT1080 cells, 10 nM R1881, 6 h, collagen pre-coated Trans-well filters
# NIH3T3 cells = experiment: BrdU incorporation in NIH3T3 fibroblasts; format: cell-based, mouse; settings: quiescent NIH3T3 cells, 18 h; EGF 100 ng/ml; R1881 10 nM
# Experimental: NIH3T3 cells were used. In A, cells were transfected with 3416 or 3424 ARE-Luc constructs with or without hAR-expressing plasmid and then made quiescent as reported in Methods. Cells were left unstimulated or stimulated for 18 h with 10 nM R1881. Luciferase activity was assayed, normalized using beta-gal as an internal control, and expressed as fold induction. Three independent experiments were performed in triplicate. Means and SEM are shown; n represents the number of experiments. […] After in vivo labeling with BrdU (100 μM), BrdU incorporation was analyzed by IF and expressed as % of total cells. Several independent experiments were performed in duplicate and data derived from at least 700 scored cells for each coverslip. Mean and SEM are shown. n represents the number of experiments. […] Quiescent NIH3T3 fibroblasts were used. In C, cells on coverslips were left unstimulated or stimulated for 18 h with the indicated compounds. […] After in vivo pulse with BrdU (100 μM), BrdU incorporation was analyzed by IF and expressed as % of total cells. Several independent experiments were performed in duplicate and the results were derived from at least 500 scored cells for each coverslip. Mean and SEM are shown. n represents the number of experiments. […] The Western blot of MCF-7 cell lysate with the anti-tubulin or the anti-EGFR antibody is shown for comparison. In D, cells were left untreated or treated for 6 h with the indicated compounds. […] Cells were allowed to migrate in collagen pre-coated Trans-well filters. Migrated cells were stained and counted as reported in Methods. Results were derived from several independent experiments, each performed in duplicate. Data are expressed as relative increase. Mean and SEM are shown. n represents the number of experiments. […] (PPTX) Click here for additional data file.
# HT1080 cell xenografts = HT1080 cell xenografts in nude male mice, tumor mass; format: in vivo; settings: i.p. on alternate days for 4 weeks, Casodex 0.1 μg/mice (4 µg/Kg), DHT 0,1 μg/mice (3 μg/Kg), six animals per group
# Experimental: Figure 1 Casodex inhibits the EGF-triggered DNA synthesis in human fibrosarcoma HT1080 cells and reduces the growth of HT1080 xenografts. Human fibrosarcoma HT1080 cells were used. In A, quiescent cells on coverslips were left un-stimulated or stimulated for 18 h with the indicated compounds. […] After in vivo pulse with BrdU (100 μM; Sigma), BrdU incorporation was analyzed by IF and expressed as % of total nuclei. Several independent experiments were performed in duplicate and the results were derived from at least 400 scored cells for each coverslip. Mean and SEM are shown. n represents the number of experiments. (**) p value< 0,001. […] In B, xenografts were established in nude male mice as described in Methods. […] Volumes of HT1080 cell xenografts were measured at the indicated times in two dimensions by a caliper and expressed as tumor mass (mm^3). […]
# HT1080 cells in 50% (v/v) Matrigel solution in phosphate-buffered saline (PBS; pH 7.4) were subcutaneously injected in the dorsal posterior region at 2.5 x 10^6 cells/male athymic mice (CD mice, Charles-River Italia) without hormone priming. […] The tumor volumes of HT1080 cell xenografts were measured at indicated intervals in two dimensions by a caliper and expressed as tumor mass (mm^3). This is calculated according to the formula: a^2 × b × 0.5, where a is the width and b is the length of the tumor. […]
Structure (SMILES),BrdU incorporation (DNA synthesis) upon stimulation with the compound alone (HT1080 cells [1]),Cell motility upon androgen challenge (Trans-well) (HT1080 cells [2]),BrdU incorporation (DNA synthesis) upon stimulation with the compound alone (NIH3T3 cells),Growth of HT1080 xenografts (tumor mass) (HT1080 cell xenografts)
C[C@]1(O)CC[C@H]2[C@@H]3CCC4=CC(=O)CCC4=C3C=C[C@@]21C [R1881],unable to mediate DNA synthesis,robustly increases cell motility,does not induce DNA synthesis,–
C[C@]12CCC(=O)C[C@@H]1CC[C@@H]1[C@@H]2CC[C@]2(C)[C@@H](O)CC[C@@H]12 [DHT],unable to mediate DNA synthesis,–,–,slightly affected this increase
